{
  "source": "the supplement of paper PMC10307832",
  "assay_in_all_cases": "relative viability (nuclei count vs DMSO), 5 days (fraction); higher = more cells survive",
  "key": {"QS11 + Pemetrexed": {"compound": "C1CC2=C(C1)C=C(C=C2)OC3=NC(=C4C(=N3)N(C=N4)CC5=CC=C(C=C5)C6=CC=CC=C6)N[C@@H](CC7=CC=CC=C7)CO [QS11] + Nc1nc2[nH]cc(CCc3ccc(C(=O)N[C@@H](CCC(=O)O)C(=O)O)cc3)c2c(=O)[nH]1 [Pemetrexed] (partner 0.2 µM)", "procedure,_shortened": "(§1)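 One day after seeding in 1536-well plates, lung cancer cell lines were dosed by pin tool. Dosing was either single-drug or a fixed anchor-drug dose plus five library-drug doses (not always all listed) in √10 steps. After 5 days, nuclei were stained in one fix-and-stain step and counted on 4× images, and relative viability is the nuclei count of treated wells over that of vehicle wells, given as the median of duplicate plates.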"}, "Darinaparsin + AZD7762": {"compound": "C[As](C)SC[C@H](NC(=O)CC[C@H](N)C(=O)O)C(=O)NCC(=O)O [Darinaparsin] + NC(=O)Nc1cc(-c2cccc(F)c2)sc1C(=O)N[C@H]1CCCNC1 [AZD7762] (partner 0.2 µM)", "procedure,_shortened": "as §1"}, "QS11 + OSI-027": {"compound": "C1CC2=C(C1)C=C(C=C2)OC3=NC(=C4C(=N3)N(C=N4)CC5=CC=C(C=C5)C6=CC=CC=C6)N[C@@H](CC7=CC=CC=C7)CO [QS11] + COc1cccc2cc(-c3nc([C@H]4CC[C@H](C(=O)O)CC4)n4ncnc(N)c34)[nH]c12 [OSI-027] (partner 0.5 µM)", "procedure,_shortened": "as §1"}, "Darinaparsin + OSI-027": {"compound": "C[As](C)SC[C@H](NC(=O)CC[C@H](N)C(=O)O)C(=O)NCC(=O)O [Darinaparsin] + COc1cccc2cc(-c3nc([C@H]4CC[C@H](C(=O)O)CC4)n4ncnc(N)c34)[nH]c12 [OSI-027] (partner 0.5 µM)", "procedure,_shortened": "as §1"}, "AZ628 + Navitoclax": {"compound": "CC1=C(C=C(C=C1)NC(=O)C2=CC(=CC=C2)C(C)(C)C#N)NC3=CC4=C(C=C3)N=CN(C4=O)C [AZ628] + CC1(C)CCC(c2ccc(Cl)cc2)=C(CN2CCN(c3ccc(C(=O)NS(=O)(=O)c4ccc(N[C@H](CCN5CCOCC5)CSc5ccccc5)c(S(=O)(=O)C(F)(F)F)c4)cc3)CC2)C1 [Navitoclax] (partner 0.5 µM)", "procedure,_shortened": "as §1"}},
  "data": [
    {"cell line": "LCLC-97TM1", "values": [
      {"measurement": "relative viability", "setting": "QS11 + Pemetrexed; first compound 0.253 µM", "result": 0.167},
      {"measurement": "relative viability", "setting": "QS11 + Pemetrexed; first compound 2.53 µM", "result": 0.182},
      {"measurement": "relative viability", "setting": "QS11 + Pemetrexed; first compound 8 µM", "result": 0.202},
      {"measurement": "relative viability", "setting": "Darinaparsin + AZD7762; first compound 0.08 µM", "result": 0.128},
      {"measurement": "relative viability", "setting": "Darinaparsin + AZD7762; first compound 0.8 µM", "result": 0.247},
      {"measurement": "relative viability", "setting": "Darinaparsin + AZD7762; first compound 2.53 µM", "result": 0.314},
      {"measurement": "relative viability", "setting": "Darinaparsin + AZD7762; first compound 8 µM", "result": 0.254},
      {"measurement": "relative viability", "setting": "QS11 + OSI-027; first compound 0.08 µM", "result": 0.405},
      {"measurement": "relative viability", "setting": "QS11 + OSI-027; first compound 0.253 µM", "result": 0.698},
      {"measurement": "relative viability", "setting": "QS11 + OSI-027; first compound 2.53 µM", "result": 0.565},
      {"measurement": "relative viability", "setting": "QS11 + OSI-027; first compound 8 µM", "result": 0.588},
      {"measurement": "relative viability", "setting": "Darinaparsin + OSI-027; first compound 0.08 µM", "result": 0.654},
      {"measurement": "relative viability", "setting": "Darinaparsin + OSI-027; first compound 0.8 µM", "result": 0.468},
      {"measurement": "relative viability", "setting": "Darinaparsin + OSI-027; first compound 2.53 µM", "result": 0.514},
      {"measurement": "relative viability", "setting": "Darinaparsin + OSI-027; first compound 8 µM", "result": 0.615},
      {"measurement": "relative viability", "setting": "AZ628 + Navitoclax; first compound 0.08 µM", "result": 0.86},
      {"measurement": "relative viability", "setting": "AZ628 + Navitoclax; first compound 0.253 µM", "result": 0.436},
      {"measurement": "relative viability", "setting": "AZ628 + Navitoclax; first compound 0.8 µM", "result": 0.48},
      {"measurement": "relative viability", "setting": "AZ628 + Navitoclax; first compound 2.53 µM", "result": 0.437},
      {"measurement": "relative viability", "setting": "AZ628 + Navitoclax; first compound 8 µM", "result": 0.255}
    ]}
  ]
}
